In brackets after ≈: the same amount, converted by molar mass.
Tests used:
Rattus norvegicus [1] = assay: Dose normalized AUC in rat at 10 mg/kg, iv; type: ADME, organism-based; details: in vivo
[2] = Volume of distribution at steady state in rat at 10 mg/kg, iv; type: ADME, organism-based; details: in vivo, read-out: Vdss
Pseudomonas aeruginosa [3] = assay: Antibacterial activity against Pseudomonas aeruginosa assessed as 3-log reduction in bacterial burden in in-vivo lung infection model; type: functional
[4] = biological target: T1, UDP-3-O-acyl-N-acetylglucosamine deacetylase (Pseudomonas aeruginosa (strain ATCC 15692 / PAO1 / 1C / PRS 101 / LMG12228), UniProt P47205); assay: Inhibition of LpxC in Pseudomonas aeruginosa isolate 44 ATCC 27853
T1 sequence (P47205 whole entry): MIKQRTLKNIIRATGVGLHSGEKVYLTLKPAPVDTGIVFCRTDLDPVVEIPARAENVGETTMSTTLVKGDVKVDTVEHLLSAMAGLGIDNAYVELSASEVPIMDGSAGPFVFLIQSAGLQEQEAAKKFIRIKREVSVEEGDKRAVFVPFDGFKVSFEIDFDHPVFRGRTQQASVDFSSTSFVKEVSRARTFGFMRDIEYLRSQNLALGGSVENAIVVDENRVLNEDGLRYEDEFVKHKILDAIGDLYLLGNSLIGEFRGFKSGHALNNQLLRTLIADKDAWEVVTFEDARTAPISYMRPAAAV

Rattus norvegicus [5] = assay: Acute toxicity in rat at 75 mg/kg using Tween-80 formulation; type: organism-based; details: in vivo
Klebsiella pneumoniae [6] = assay: Antibacterial activity against Klebsiella pneumoniae isolate 21 ATCC 4352; type: functional
[7] = Clearance in mouse at 2 mg/kg, iv; type: ADME, organism-based; details: in vivo
Pseudomonas aeruginosa [8] = assay: Antibacterial activity against Pseudomonas aeruginosa isolate 847; type: functional
[9] = Fraction unbound in mouse plasma at 10 uM by equilibrium dialysis method; type: ADME, cell-free
[10] = Fraction unbound in rat plasma at 10 uM by equilibrium dialysis method; type: ADME, cell-free
Rattus norvegicus [11] = assay: Toxicity in rat at 100 mg/kg, iv administered as bolus dose using 10% capsitol formulation for 7 days; type: organism-based; details: in vivo, 168 h
Pseudomonas aeruginosa [12] = assay: Antibacterial activity against Pseudomonas aeruginosa assessed as 3-log reduction in bacterial burden in in-vivo thigh infection model; type: functional
[13] = Fraction unbound in cynomolgus monkey plasma at 10 uM by equilibrium dialysis method; type: ADME, cell-free, Macaca fascicularis
[14] = Half life in cynomolgus monkey at 10 mg/kg, iv; type: ADME, organism-based, Macaca fascicularis; details: in vivo
[15] = biological target: T2, UDP-3-O-acyl-N-acetylglucosamine deacetylase (Escherichia coli K-12, UniProt P0A725); assay: Inhibition of LpxC in Escherichia coli isolate 35 ATCC 25922; design: species or system Escherichia coli ATCC 25922
T2 sequence (P0A725 whole entry): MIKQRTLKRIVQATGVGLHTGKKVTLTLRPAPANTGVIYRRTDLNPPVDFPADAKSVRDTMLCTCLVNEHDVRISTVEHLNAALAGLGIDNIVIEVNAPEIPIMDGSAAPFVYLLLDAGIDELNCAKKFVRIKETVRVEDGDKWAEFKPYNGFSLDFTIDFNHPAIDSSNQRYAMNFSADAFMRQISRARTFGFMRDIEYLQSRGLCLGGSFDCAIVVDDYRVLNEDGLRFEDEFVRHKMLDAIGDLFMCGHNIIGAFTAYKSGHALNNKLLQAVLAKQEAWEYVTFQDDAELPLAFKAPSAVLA

Escherichia coli [16] = assay: Antibacterial activity against Escherichia coli isolate 35 ATCC 25922; type: functional
[17] = Clearance in rat at 10 mg/kg, iv; type: ADME, organism-based; details: in vivo
[18] = Fraction unbound in human plasma at 10 uM by equilibrium dialysis method; type: ADME, cell-free
Escherichia coli [19] = assay: Antibacterial activity against Escherichia coli assessed as 2 log reduction in bladder bacterial burden in in-vivo urinary tract infection model; type: functional
Mus musculus [20] = assay: Dose normalized AUC in mouse at 2 mg/kg, iv; type: ADME, organism-based; details: in vivo
Pseudomonas aeruginosa [21] = assay: Antibacterial activity against Pseudomonas aeruginosa isolate 44 ATCC 27853; type: functional
Pseudomonas aeruginosa [22] = assay: Antibacterial activity against Pseudomonas aeruginosa assessed as reduction in bacterial burden in in-vivo blood infection septicemia model; type: functional; details: read-out: PD50
[23] = Volume of distribution at steady state in mouse at 2 mg/kg, iv; type: ADME, organism-based; details: in vivo, read-out: Vdss
[24] = Half life in rat at 10 mg/kg, iv; type: ADME, organism-based; details: in vivo
Pseudomonas aeruginosa [25] = assay: Antibacterial activity against Pseudomonas aeruginosa isolate 839 harboring mexAB-oprM deletion mutant; type: functional
[26] = Volume of distribution at steady state in cynomolgus monkey at 10 mg/kg, iv; type: ADME, organism-based, Macaca fascicularis; details: in vivo, read-out: Vdss
Rattus norvegicus [27] = species on record: Rattus norvegicus; assay: Displacement of sodium channel site 2 in [3H]Batrachotoxinin from Wistar rat brain membranes at 25 uM after 60 mins relative to control; details: Membrane
Cynomolgus monkey = assay: Dose normalized AUC in cynomolgus monkey at 10 mg/kg, iv; type: ADME, organism-based, Macaca fascicularis; details: in vivo
[28] = Half life in mouse at 10 mg/kg, sc; type: ADME, organism-based; details: in vivo
[29] = Clearance in mouse at 10 mg/kg, sc; type: ADME, organism-based; details: in vivo
[30] = Aqueous solubility of the compound in pH 7.4 buffer; type: physicochemical
[31] = Clearance in cynomolgus monkey at 10 mg/kg, iv; type: ADME, organism-based, Macaca fascicularis; details: in vivo
[32] = Bioavailability in mouse at 10 mg/kg, sc; type: ADME, organism-based; details: in vivo
[33] = biological target: Sigma intracellular receptor 2 (Homo sapiens) (UniProt Q5BJF2); assay: Antagonist activity at sigma2 receptor (unknown origin) at 25 uM relative to control
[34] = biological target: T3, Muscarinic acetylcholine receptor M2 (Homo sapiens) (UniProt P08172); assay: Antagonist activity at muscarinic M2 receptor (unknown origin) at 25 uM relative to control
T3 sequence (whole entry): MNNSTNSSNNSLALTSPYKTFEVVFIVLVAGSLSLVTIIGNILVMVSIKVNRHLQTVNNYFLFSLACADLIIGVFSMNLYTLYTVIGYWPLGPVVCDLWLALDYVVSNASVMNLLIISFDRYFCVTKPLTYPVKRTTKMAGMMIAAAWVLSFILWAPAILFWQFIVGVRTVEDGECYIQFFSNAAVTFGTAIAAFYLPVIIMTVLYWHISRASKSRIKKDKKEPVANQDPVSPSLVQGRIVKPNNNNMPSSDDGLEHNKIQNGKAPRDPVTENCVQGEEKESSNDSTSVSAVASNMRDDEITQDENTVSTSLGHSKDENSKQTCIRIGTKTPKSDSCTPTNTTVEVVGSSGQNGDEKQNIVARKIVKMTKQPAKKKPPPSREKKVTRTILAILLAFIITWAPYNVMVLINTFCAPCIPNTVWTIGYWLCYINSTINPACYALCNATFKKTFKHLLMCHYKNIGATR

[35] = Displacement of sodium channel site 2 in [3H]Batrachotoxinin from Wistar rat brain membranes after 60 mins; design: species or system Membrane
Rattus norvegicus [36] = assay: Acute toxicity in rat at 200 mg/kg using capsitol capsulated formulation; type: organism-based; details: in vivo
Klebsiella pneumoniae [37] = assay: Antibacterial activity against Klebsiella pneumoniae assessed as 3 log reduction in lung bacterial burden in in-vivo lung infection model; type: functional
Mus musculus [38] = assay: Dose normalized AUC in mouse at 10 mg/kg, sc; type: ADME, organism-based; details: in vivo
[39] = biological target: T1, UDP-3-O-acyl-N-acetylglucosamine deacetylase; assay: Inhibition of LpxC in Pseudomonas aeruginosa isolate 847
[40] = Half life in mouse at 2 mg/kg, iv; type: ADME, organism-based; details: in vivo

Chain of Sigma intracellular receptor 2 (Homo sapiens) (Q5BJF2 whole entry): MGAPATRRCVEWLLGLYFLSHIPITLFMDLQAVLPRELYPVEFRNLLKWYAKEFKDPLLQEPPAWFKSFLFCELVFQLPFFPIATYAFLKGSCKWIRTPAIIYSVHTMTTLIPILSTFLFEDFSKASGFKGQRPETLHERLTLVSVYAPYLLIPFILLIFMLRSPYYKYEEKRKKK

CC(C)(N)[C@H](N[C@H]1CCc2cc(C#Cc3ccc(Cn4ccnc4CO)cc3)ccc21)C(=O)NO
AUC/dose (Rattus norvegicus [1]): 1.07 µg·h/mL/mg/kg | Vd [2]: 0.68 L/kg | ED (Pseudomonas aeruginosa [3]): 32 mg/kg | IC50 [4]: 4 nM | Activity (Rattus norvegicus [5]): Toxic | MIC (Klebsiella pneumoniae [6]): 0.125 µg/mL (≈ 0.264 µM) | MIC90 (Klebsiella pneumoniae [6]): 8 µg/mL (≈ 16.9 µM) | clearance [7]: 17.5 mL/min/kg | MIC (Pseudomonas aeruginosa [8]): 4 µg/mL (≈ 8.45 µM) | fraction unbound at 10 µM [9]: 0.067 | fraction unbound at 10 µM [10]: 0.05 | Activity (Rattus norvegicus [11]): Non-Toxic | ED (Pseudomonas aeruginosa [12]): 25 mg/kg | fraction unbound at 10 µM [13]: 0.047 | half-life [14]: 6.54 h | IC50 [15]: 4 nM | MIC (Escherichia coli [16]): 0.5 to 1 µg/mL (≈ 1.06 to 2.11 µM) | MIC90 (Escherichia coli [16]): 1 µg/mL (≈ 2.11 µM) | clearance [17]: 15.6 mL/min/kg | fraction unbound at 10 µM [18]: 0.06 | ED (Escherichia coli [19]): 15.1 mg/kg | AUC/dose (Mus musculus [20]): 0.95 µg·h/mL/mg/kg | MIC (Pseudomonas aeruginosa [21]): 1 µg/mL (≈ 2.11 µM) | MIC90 (Pseudomonas aeruginosa [21]): 4 µg/mL (≈ 8.45 µM) | ED50 (Pseudomonas aeruginosa [22]): 13 mg/kg | Vd [23]: 0.4 L/kg | half-life [24]: 1.87 h | MIC (Pseudomonas aeruginosa [25]): 0.125 µg/mL (≈ 0.264 µM) | Vd [26]: 0.38 L/kg | inhibition (Rattus norvegicus [27]): 97% | AUC/dose (Cynomolgus monkey): 4.07 µg·h/mL/mg/kg | half-life [28]: 1.2 h | CL/F [29]: 24.4 mL/min/kg | solubility [30]: 850 µg/mL (≈ 1790 µM) | clearance [31]: 4.39 mL/min/kg | bioavailability [32]: 74% | inhibition [33]: > 50% | inhibition [34]: > 50% | IC50 [35]: 400 nM | Activity (Rattus norvegicus [36]): Non-Toxic | ED (Klebsiella pneumoniae [37]): 2.7 mg/kg | AUC/dose (Mus musculus [38]): 0.7 µg·h/mL/mg/kg | IC50 [39]: 2 nM | half-life [40]: 1.7 h

Source: ChEMBL document CHEMBL4049409, “Structure-based discovery of LpxC inhibitors” (Bioorg Med Chem Lett, 2017)
